From US6537744B1, “Use of biomarkers in saliva to evaluate the toxicity of agents and the function of tissues in both biomedical and environmental applications” (priority 1995, dated 2003)

Key:
[1] = system: carboxylase in human saliva; experiment: Inhibition of carboxylase in human saliva (p-nitrophenylvalerate hydrolysis, 400 nm); type: biochemical
Protocol: The carboxylase activity in saliva samples is monitored by the hydrolysis of p-nitrophenylvalerate to the readily detectable p-nitrophenol. The concentration of p-nitrophenol in the sample is measured spectrophotometrically at 400 nm, and the value is calculated from p-nitrophenol standard curve (Table 3 and FIG. 4). Values for carboxylase activity in saliva (nmol. min-1 per mL of saliva) are presented in Tables 4-8 and showing in FIG. 5 and FIG. 6. The average specific activity for carboxylase in human saliva is about 47 nmol min^−1 per mL.
The assay for carboxylase consists of 4 mL of tris-HCl buffer (pH 7.0) that contain 25 μL of p-nitrophenylvalerate (13.8 mg/mL of alcohol) and 50-500 μL of human saliva. […] In the inhibition study, the agent is incubated with saliva for about 15-20 minutes before the addition of p-nitrophenylvalerate. Organophosphate concentration is verified by gas chromatography using standard methods as described by Knaak et al. (1993).

[2] = system: acetylcholinesterase in human saliva; experiment: Inhibition of acetylcholinesterase in human saliva (acetylthiocholine iodide/DTNB, 405 nm); type: biochemical; conditions: for % Activity / % Inhibition / Absorb. at 408 nm for 65 min. / Absorb. at 408 nm for 180 min. / nmol/min per mg: 0.6 mL saliva, 30 min preincubation at room temperature
Protocol: The hydrolysis of acetylthiocholine iodide (an analog of acetylcholine iodides) by the saliva enzyme or enzymes is measured by generating the yellow 5-thio-2-nitrobenzoate with an absorbance maximum at 405 nm. The rate of change of absorbance is directly proportional to acetylcholinesterase activity. In this procedure, 0.1-1 mL of saliva (3.261 mg protein/mL) is incubated with 100 μL of acetylthiocholine iodide (0.018M) (lot #10H0653 Sigma) for 30-180 minute at 37° C. in 4.0 mL phosphate buffer (pH 7.8). After the incubation, a 0.2 mL of DTNB is added and the sample is read at 405 nm. The enzyme activity is calculated from glutathione standard curve (Table 9 and FIG. 9). Values for AChE activity in human saliva and enzyme kinetics are presented in Tables 10-14 and show in FIG. 10 through FIG. 14.
The AChE specific activity in saliva is about 4 nmol minute^−1 per mL of saliva. […] The percent of enzyme inhibition by organophosphate is calculated and presented in Tables 13-14 and showing in FIG. 15.

[3] = 1.0 ng/ml, Test #2, 0.2 mL saliva, 15 min preincubation at 37° C., 30 min with substrate
[4] = 2.9 ng/ml, Test #2, 0.2 mL saliva, 15 min preincubation at 37° C., 30 min with substrate
[5] = 8.6 ng/ml, Test #2, 0.2 mL saliva, 15 min preincubation at 37° C., 30 min with substrate
[6] = 26 ng/mL, Test #1, 100 μL saliva, 15 min preincubation at 37° C.
[7] = 52 ng/mL, Test #1, 100 μL saliva, 15 min preincubation at 37° C.
[8] = 78 ng/mL, Test #1, 100 μL saliva, 15 min preincubation at 37° C.
[9] = 156 ng/mL, Test #1, 100 μL saliva, 15 min preincubation at 37° C.
[10] = 312 ng/mL, Test #1, 100 μL saliva, 15 min preincubation at 37° C.
[11] = 625 ng/mL, Test #1, 100 μL saliva, 15 min preincubation at 37° C.
[12] = 175 μg/ml, test #1, 200 μL saliva, 15 min preincubation, 37° C.
[13] = .04 ng/ml, Test #2, 0.2 mL saliva, 15 min preincubation at 37° C., 30 min with substrate
[14] = .1 ng/ml, Test #2, 0.2 mL saliva, 15 min preincubation at 37° C., 30 min with substrate
[15] = .3 ng/ml, Test #2, 0.2 mL saliva, 15 min preincubation at 37° C., 30 min with substrate
[16] = 2 μg of DNIO in 4.0 mL, Test #2, 200 μL saliva, 37° C.

CCOP(N)(=O)Oc1ccccc1C(=O)OC(C)C (centres unmarked) [DNIO, des N-Isofenphos-oxon]
% Activity [1, 3]: 57%
% Inhibition [1, 3]: 43%
Absorb. at 400 nm [1, 3]: .46
nmol/min per mg protein [1, 3]: 7.46 nmol/min per mg protein
% Activity [1, 4]: 50%
% Inhibition [1, 4]: 50%
Absorb. at 400 nm [1, 4]: .40
nmol/min per mg protein [1, 4]: 6.55 nmol/min per mg protein
% Activity [1, 5]: 40%
% Inhibition [1, 5]: 60%
Absorb. at 400 nm [1, 5]: .32
nmol/min per mg protein [1, 5]: 5.24 nmol/min per mg protein
% Activity [1, 6]: 3%
% Inhibition [1, 6]: 97%
Absorb. at 400 nm for 20 min. [1, 6]: .02
Absorb. at 400 nm for 40 min. [1, 6]: .03
Absorb. at 400 nm for 80 min [1, 6]: .02
% Activity [1, 7]: 5%
% Inhibition [1, 7]: 95%
Absorb. at 400 nm for 20 min. [1, 7]: .03
Absorb. at 400 nm for 40 min. [1, 7]: .03
Absorb. at 400 nm for 80 min [1, 7]: .03
% Activity [1, 8]: 3%
% Inhibition [1, 8]: 97%
Absorb. at 400 nm for 20 min. [1, 8]: .02
Absorb. at 400 nm for 40 min. [1, 8]: .02
Absorb. at 400 nm for 80 min [1, 8]: .02
% Activity [1, 9]: 5%
% Inhibition [1, 9]: 95%
Absorb. at 400 nm for 20 min. [1, 9]: .02
Absorb. at 400 nm for 40 min. [1, 9]: .02
Absorb. at 400 nm for 80 min [1, 9]: .03
% Activity [1, 10]: 13%
% Inhibition [1, 10]: 87%
Absorb. at 400 nm for 20 min. [1, 10]: .04
Absorb. at 400 nm for 40 min. [1, 10]: .06
Absorb. at 400 nm for 80 min [1, 10]: .08
% Activity [1, 11]: 16%
% Inhibition [1, 11]: 84%
Absorb. at 400 nm for 20 min. [1, 11]: .05
Absorb. at 400 nm for 40 min. [1, 11]: .07
Absorb. at 400 nm for 80 min [1, 11]: .10
% Act. ([1]; 5 μg/mL, Test #2, 50 μL saliva, 20 min preincubation): 35%
% Inhib. [1, 12]: 92%
Absorb. at 400 nm for 20 min. [1, 12]: .16
Absorb. at 400 nm for 60 min. [1, 12]: .55
% Activity [1, 13]: 94%
% Inhibition [1, 13]: 6%
Absorb. at 400 nm [1, 13]: .75
nmol/min per mg protein [1, 13]: 12.31 nmol/min per mg protein
% Activity [1, 14]: 83%
% Inhibition [1, 14]: 17%
Absorb. at 400 nm [1, 14]: .66
nmol/min per mg protein [1, 14]: 10.87 nmol/min per mg protein
% Activity [1, 15]: 78%
% Inhibition [1, 15]: 22%
Absorb. at 400 nm [1, 15]: .62
nmol/min per mg protein [1, 15]: 10.21 nmol/min per mg protein
effective concentration for 50% inhibition EC50 ([1]; carboxylase, human saliva): 3 ng/mL
inhibition of carboxylase (in words) ([1]; human saliva): inhibited
% Activity ([2]; 1.0 ng/mL, Test #2): 68%
% Inhibition ([2]; 1.0 ng/mL, Test #2): 32%
Absorb. at 408 nm for 65 min. ([2]; 1.0 ng/mL, Test #2): .17
Absorb. at 408 nm for 180 min. ([2]; 1.0 ng/mL, Test #2): .21
nmol/min per mg ([2]; 1.0 ng/mL, Test #2): .29 nmol/min per mg
% Activity ([2]; 2.9 ng/mL, Test #2): 45%
% Inhibition ([2]; 2.9 ng/mL, Test #2): 55%
Absorb. at 408 nm for 65 min. ([2]; 2.9 ng/mL, Test #2): .16
Absorb. at 408 nm for 180 min. ([2]; 2.9 ng/mL, Test #2): .14
nmol/min per mg ([2]; 2.9 ng/mL, Test #2): .19 nmol/min per mg
% Activity ([2]; 8.6 ng/mL, Test #2): 26%
% Inhibition ([2]; 8.6 ng/mL, Test #2): 74%
Absorb. at 408 nm for 65 min. ([2]; 8.6 ng/mL, Test #2): .11
Absorb. at 408 nm for 180 min. ([2]; 8.6 ng/mL, Test #2): .08
nmol/min per mg ([2]; 8.6 ng/mL, Test #2): .11 nmol/min per mg
% Activity ([2]; 26 ng/mL, Test #2): 19%
% Inhibition ([2]; 26 ng/mL, Test #2): 81%
Absorb. at 408 nm for 65 min. ([2]; 26 ng/mL, Test #2): .11
Absorb. at 408 nm for 180 min. ([2]; 26 ng/mL, Test #2): .06
nmol/min per mg ([2]; 26 ng/mL, Test #2): .08 nmol/min per mg
% Activity ([2]; 52 ng/mL, Test #2): 13%
% Inhibition ([2]; 52 ng/mL, Test #2): 87%
Absorb. at 408 nm for 65 min. ([2]; 52 ng/mL, Test #2): .09
Absorb. at 408 nm for 180 min. ([2]; 52 ng/mL, Test #2): .04
nmol/min per mg ([2]; 52 ng/mL, Test #2): .05 nmol/min per mg
% Activity ([2]; 78 ng/mL, Test #2): 13%
% Inhibition ([2]; 78 ng/mL, Test #2): 87%
Absorb. at 408 nm for 65 min. ([2]; 78 ng/mL, Test #2): .10
Absorb. at 408 nm for 180 min. ([2]; 78 ng/mL, Test #2): .04
nmol/min per mg ([2]; 78 ng/mL, Test #2): .05 nmol/min per mg
% Activity ([2]; 156 ng/mL, Test #2): 13%
% Inhibition ([2]; 156 ng/mL, Test #2): 87%
Absorb. at 408 nm for 65 min. ([2]; 156 ng/mL, Test #2): .10
Absorb. at 408 nm for 180 min. ([2]; 156 ng/mL, Test #2): .04
nmol/min per mg ([2]; 156 ng/mL, Test #2): .05 nmol/min per mg
% Activity ([2]; 313 ng/mL, Test #2): 10%
% Inhibition ([2]; 313 ng/mL, Test #2): 90%
Absorb. at 408 nm for 65 min. ([2]; 313 ng/mL, Test #2): .07
Absorb. at 408 nm for 180 min. ([2]; 313 ng/mL, Test #2): .03
nmol/min per mg ([2]; 313 ng/mL, Test #2): .04 nmol/min per mg
% Activity ([2]; 625 ng/mL, Test #2): 10%
% Inhibition ([2]; 625 ng/mL, Test #2): 90%
Absorb. at 408 nm for 65 min. ([2]; 625 ng/mL, Test #2): .07
Absorb. at 408 nm for 180 min. ([2]; 625 ng/mL, Test #2): .03
nmol/min per mg ([2]; 625 ng/mL, Test #2): .04 nmol/min per mg
Absorb. at 405 nm for 50 min. [2, 16]: .14
Absorb. at 405 nm for 110 min. [2, 16]: .10
Absorb. at 405 nm for 165 min. [2, 16]: .11
Activity ([2]; 2 μg of DNIO in 4.0 mL, Test #2, 200 μL saliva, 37° C. (no inhibitor: 1.14)): .22 nmol/min
% Activity ([2]; .04 ng/mL, Test #2): 94%
% Inhibition ([2]; .04 ng/mL, Test #2): 6%
Absorb. at 408 nm for 65 min. ([2]; .04 ng/mL, Test #2): .17
Absorb. at 408 nm for 180 min. ([2]; .04 ng/mL, Test #2): .29
nmol/min per mg ([2]; .04 ng/mL, Test #2): .39 nmol/min per mg
% Activity ([2]; .1 ng/mL, Test #2): 90%
% Inhibition ([2]; .1 ng/mL, Test #2): 10%
Absorb. at 408 nm for 65 min. ([2]; .1 ng/mL, Test #2): .14
Absorb. at 408 nm for 180 min. ([2]; .1 ng/mL, Test #2): .28
nmol/min per mg ([2]; .1 ng/mL, Test #2): .37 nmol/min per mg
% Activity ([2]; .3 ng/mL, Test #2): 84%
% Inhibition ([2]; .3 ng/mL, Test #2): 16%
Absorb. at 408 nm for 65 min. ([2]; .3 ng/mL, Test #2): .21
Absorb. at 408 nm for 180 min. ([2]; .3 ng/mL, Test #2): .26
nmol/min per mg ([2]; .3 ng/mL, Test #2): .34 nmol/min per mg
Absorb. at 405 nm for 100 min. ([2]; DNIO 4 μg in 4 mL, Test #1, 1.0 mL saliva, pH 7.8): .03
effective concentration for 50% inhibition EC50 ([2]; acetylcholinesterase, human saliva): 3 ng/mL
inhibition of acetylcholinesterase (in words) ([2]; human saliva): inhibited
concentration that produced 50% inhibition in AChE ([2]; saliva incubated with inhibitor about 15 minutes before substrate): 3 ng per mL
